Experimental data from patent publication US10154957B2, “Microneedle device having a peptide therapeutic agent and an amino acid and methods of making and using the same” (3M INNOVATIVE PROPERTIES COMPANY, priority 2011, dated 2018).
Marks after values point to notes of the source that are not given here.

Experiment: Percent purity of PTHrP analogue in coating with varying His-HCl concentration, three storage conditions (HPLC)
Assay type: physicochemical
Settings: peptide 10 mg/mL in PBS
Method: The protein or polypeptide content in the formulation coated on the microneedle arrays was determined using an Agilent 1100 HPLC system (Agilent Technologies, Wilmington, Del.) equipped with a binary pump, well-plated thermostated autosampler, thermostated column compartment, and a diode array UV detector. A Zorbax 300SB-C8 column (Agilent Technologies, Wilmington, Del.) having a 5 μm particle size and 2.1×150 mm inner diameter was used for the separations. The column was maintained at 50° C. The mobile phase consisted of two eluents. Eluent A was 0.1% TFA (trifluoroacetic acid) in water and eluent B was 0.1% TFA in acetonitrile (Spectrum Chemical, New Brunswick, N.J.). A linear gradient from 80/20 to 50/50 (A/B) was applied over 30 minutes. The flow rate was 0.4 mL/minute and the UV detection wavelength was set at 214 nm. The total run time was 34 minutes and the sample injection volume was 15 μL.
Five sample formulations were prepared containing 10 mg/mL of [Glu^22,25,Leu^23,28,31,Aib^29,Lys^26,30]hPTHrP(1-34)NH2 and varying concentrations of L-histidine monohydrochloride (His-HCl) in PBS. The concentrations of His-HCl in the sample formulations range from 1 mg/mL to 10 mg/mL. A control formulation was also prepared containing 10 mg/mL of [Glu^22,25,Leu^23,28,31,Aib^29,Lys^26,30]hPTHrP(1-34)NH2 in PBS. […] Microneedle arrays were coated with either the sample or the control formulations. The coating was applied by dropwise addition of 40 μL of the formulation to the portion of the array defined by the octagon shaped pattern of microneedles. The flood coated arrays (both sample and control formulation coated) were dried in an oven at 35° C. for 1.5 hours followed by 30° C. for 15 hours.
After drying, the coated arrays were placed in a storage chamber that was maintained at one of three storage conditions: 40° C./96% RH (storage condition A); 25° C./60% RH (storage condition B); or 5° C./ambient RH. The [Glu^22,25,Leu^23,28,31,Aib^29,Lys^26,30]hPTHrP(1-34)NH2 content of the coated arrays was determined following storage in a chamber for 1 day, 3 days, 7 days, 14 days, 21 days, 28 days, and 2 months. The initial [Glu^22,25,Leu^23,28,31,Aib^29,Lys^26,30]hPTHrP(1-34)NH2 content was also determined using freshly coated arrays (both sample and control formulation coated). The arrays used to determine initial content were stored in a refrigerator at about 4° C. and analyzed within one day of being prepared. At the designated time point, an array was taken from the chamber and washed with PBS (3.5 mL) to remove the coating from the array. An aliquot of the resulting wash solution was analyzed for [Glu^22,25,Leu^23,28,31,Aib^29,Lys^26,30]hPTHrP(1-34)NH2 content using the HPLC method described above. The results were quantified against an external standard of [Glu^22,25,Leu^23,28,31,Aib^29,Lys^26,30]hPTHrP(1-34)NH2. At each time point, the percent purity of [Glu^22,25,Leu^23,28,31,Aib^29,Lys^26,30]hPTHrP(1-34)NH2 in the coating was determined by measuring the peak area for [Glu^22,25,Leu^23,28,31,Aib^29,Lys^26,30]hPTHrP(1-34)NH2 in the selected coating and dividing it by the total peak area measured for all [Glu^22,25,Leu^23,28,31,Aib^29,Lys^26,30]hPTHrP(1-34)NH2 related peaks.

Percent Purity of [Glu^22,25, Leu^23,28,31, Aib^29, Lys^26,30]hPTHrP(1-34)NH2 (Histidine-HCl 3.3 mg/mL, Storage Condition B (25° C./60% RH), Initial): 99.3%
Percent Purity of [Glu^22,25, Leu^23,28,31, Aib^29, Lys^26,30]hPTHrP(1-34)NH2 (Histidine-HCl 5 mg/mL, Storage Condition A (40° C./96% RH), Day 1): 98.7%
Percent Purity of [Glu^22,25, Leu^23,28,31, Aib^29, Lys^26,30]hPTHrP(1-34)NH2 (Histidine-HCl 5 mg/mL, Storage Condition A (40° C./96% RH), Day 3): 97.5%
Percent Purity of [Glu^22,25, Leu^23,28,31, Aib^29, Lys^26,30]hPTHrP(1-34)NH2 (Histidine-HCl 5 mg/mL, Storage Condition A (40° C./96% RH), Day 7): 92.0%
Percent Purity of [Glu^22,25, Leu^23,28,31, Aib^29, Lys^26,30]hPTHrP(1-34)NH2 (Histidine-HCl 5 mg/mL, Storage Condition A (40° C./96% RH), Day 14): 65.1%
Percent Purity of [Glu^22,25, Leu^23,28,31, Aib^29, Lys^26,30]hPTHrP(1-34)NH2 (Histidine-HCl 5 mg/mL, Storage Condition A (40° C./96% RH), Day 21, the sample for analysis contained insoluble impurities): 33.8^(a) percent
Percent Purity of [Glu^22,25, Leu^23,28,31, Aib^29, Lys^26,30]hPTHrP(1-34)NH2 (Histidine-HCl 5 mg/mL, Storage Condition A (40° C./96% RH), Initial): 99.0%
Percent Purity of [Glu^22,25, Leu^23,28,31, Aib^29, Lys^26,30]hPTHrP(1-34)NH2 (Histidine-HCl 5 mg/mL, Storage Condition B (25° C./60% RH), 2 months): 98.4%
Percent Purity of [Glu^22,25, Leu^23,28,31, Aib^29, Lys^26,30]hPTHrP(1-34)NH2 (Histidine-HCl 5 mg/mL, Storage Condition B (25° C./60% RH), Day 3): 98.9%
Percent Purity of [Glu^22,25, Leu^23,28,31, Aib^29, Lys^26,30]hPTHrP(1-34)NH2 (Histidine-HCl 5 mg/mL, Storage Condition B (25° C./60% RH), Day 7): 98.9%
Percent Purity of [Glu^22,25, Leu^23,28,31, Aib^29, Lys^26,30]hPTHrP(1-34)NH2 (Histidine-HCl 5 mg/mL, Storage Condition B (25° C./60% RH), Day 14): 98.9%
Percent Purity of [Glu^22,25, Leu^23,28,31, Aib^29, Lys^26,30]hPTHrP(1-34)NH2 (Histidine-HCl 5 mg/mL, Storage Condition B (25° C./60% RH), Day 28): 98.8%
Percent Purity of [Glu^22,25, Leu^23,28,31, Aib^29, Lys^26,30]hPTHrP(1-34)NH2 (Histidine-HCl 5 mg/mL, Storage Condition B (25° C./60% RH), Initial): 99.0%
Percent Purity of [Glu^22,25, Leu^23,28,31, Aib^29, Lys^26,30]hPTHrP(1-34)NH2 (Histidine-HCl 10 mg/mL, Storage Condition A (40° C./96% RH), Day 1): 98.7%
Percent Purity of [Glu^22,25, Leu^23,28,31, Aib^29, Lys^26,30]hPTHrP(1-34)NH2 (Histidine-HCl 10 mg/mL, Storage Condition A (40° C./96% RH), Day 3): 98.5%
Percent Purity of [Glu^22,25, Leu^23,28,31, Aib^29, Lys^26,30]hPTHrP(1-34)NH2 (Histidine-HCl 10 mg/mL, Storage Condition A (40° C./96% RH), Day 7): 97.7%
Percent Purity of [Glu^22,25, Leu^23,28,31, Aib^29, Lys^26,30]hPTHrP(1-34)NH2 (Histidine-HCl 10 mg/mL, Storage Condition A (40° C./96% RH), Day 14): 94.9%
Percent Purity of [Glu^22,25, Leu^23,28,31, Aib^29, Lys^26,30]hPTHrP(1-34)NH2 (Histidine-HCl 10 mg/mL, Storage Condition A (40° C./96% RH), Day 21): 80.8%
Percent Purity of [Glu^22,25, Leu^23,28,31, Aib^29, Lys^26,30]hPTHrP(1-34)NH2 (Histidine-HCl 10 mg/mL, Storage Condition A (40° C./96% RH), Initial): 99.0%
Percent Purity of [Glu^22,25, Leu^23,28,31, Aib^29, Lys^26,30]hPTHrP(1-34)NH2 (Histidine-HCl 10 mg/mL, Storage Condition B (25° C./60% RH), Day 3): 98.9%
Percent Purity of [Glu^22,25, Leu^23,28,31, Aib^29, Lys^26,30]hPTHrP(1-34)NH2 (Histidine-HCl 10 mg/mL, Storage Condition B (25° C./60% RH), Day 7): 98.9%
Percent Purity of [Glu^22,25, Leu^23,28,31, Aib^29, Lys^26,30]hPTHrP(1-34)NH2 (Histidine-HCl 10 mg/mL, Storage Condition B (25° C./60% RH), Day 14): 98.8%
Percent Purity of [Glu^22,25, Leu^23,28,31, Aib^29, Lys^26,30]hPTHrP(1-34)NH2 (Histidine-HCl 10 mg/mL, Storage Condition B (25° C./60% RH), Initial): 99.0%
Percent Purity of [Glu^22,25, Leu^23,28,31, Aib^29, Lys^26,30]hPTHrP(1-34)NH2 (Histidine-HCl none, Storage Condition B (25° C./60% RH), 2 months): 96.3%
Percent Purity of [Glu^22,25, Leu^23,28,31, Aib^29, Lys^26,30]hPTHrP(1-34)NH2 (Histidine-HCl none, Storage Condition B (25° C./60% RH), Day 3): 97.9%
Percent Purity of [Glu^22,25, Leu^23,28,31, Aib^29, Lys^26,30]hPTHrP(1-34)NH2 (Histidine-HCl none, Storage Condition B (25° C./60% RH), Day 7): 98.0%
Percent Purity of [Glu^22,25, Leu^23,28,31, Aib^29, Lys^26,30]hPTHrP(1-34)NH2 (Histidine-HCl none, Storage Condition B (25° C./60% RH), Day 14): 97.7%
Percent Purity of [Glu^22,25, Leu^23,28,31, Aib^29, Lys^26,30]hPTHrP(1-34)NH2 (Histidine-HCl none, Storage Condition B (25° C./60% RH), Day 28): 97.5%
Percent Purity of [Glu^22,25, Leu^23,28,31, Aib^29, Lys^26,30]hPTHrP(1-34)NH2 (Histidine-HCl none, Storage Condition B (25° C./60% RH), Initial): 98.7%
Substance: [Glu^22,25,Leu^23,28,31,Aib^29,Lys^26,30]hPTHrP(1-34)NH2
